# Test results: patent US20140100248A1, “Novel Heterocyclic Compounds as Modulators of Sphingolipid Signaling and Uses Thereof” (UNIVERSITÄT BERN, priority 2011, published 2014)
# Tests used:
# [1] = test system: p42/44-MAPK phosphorylation in renal mesangial cells; experiment: MAPK/ERK (p42/44) phosphorylation in renal mesangial cells, Western blot; format: cell-based, rat; conditions: for agonistic potential on S1P receptors: concluded from MAPK/ERK activation and antagonist experiments; for p42/44 phosphorylation (p42/44-MAPK activity): rat renal mesangial cells, stimulation for 10 min; for effect on ST-968-induced p42/44 activation: pretreatment with pertussis toxin 100 ng/ml 16 h, or VPC23019 10 μM or W146 10 μM 30 min, then ST-968 1 μM 10 min
# Method: (A+B): Confluent mesangial cells were pretreated for 16 h with pertussis toxin (100 ng/ml), or for 30 min with vehicle (−), VPC23019 (10 μM) and W146 (10 μM) prior to stimulation for 10 min with either vehicle (Co) or ST-968 (1 μM). (C): Cells were stimulated for 10 min with either vehicle (Co) or the indicated concentrations (in μM) of S1P and ST-1071. Thereafter, cell lysates containing 30 μg of protein were separated by SDS-PAGE, transferred to nitrocellulose and subjected to Western blot analysis using antibodies against phospho-p42/44 (dilution of 1:1000; A, upper panel) and total p42/ERK2 and p44/ERK1 (dilution 1:6000 each; B, lower panel). Blots were stained by the ECL method according to the manufacturer's recommendation. Bands corresponding to the phospho-p42/44 and total ERKs were densitometrically scanned and evaluated (B). Results in B are depicted as % of ST-968 stimulation and are means ±S.D. (n=3).
# (§1) Rat renal mesangial cells were isolated, characterized, and cultured as previously described (Pfeilschifter et al., 1984). For the experiments performed in this study, cells between passages 8-30 were used. The human endothelial cell line EA.hy 926 was cultured in RPMI medium containing 10% (v/v) fetal bovine serum, 10 mM Hepes, pH 7.4, 100 units/ml penicillin, and 100 μg/ml streptomycin. HCT-116 colon carcinoma cells were cultured in McCoy medium including 10% (v/v) fetal bovine serum, 100 units/ml penicillin, and 100 μg/ml streptomycin. Prior to stimulation, all cells were rendered quiescent for 24 h in DMEM including 0.1 mg/ml of fatty acid-free bovine serum albumin (BSA).
# (§2) Confluent mesangial cells were stimulated as indicated in the figure legends in Dulbecco's modified Eagle medium (DMEM) supplemented with 0.1 mg/ml of fatty acid-free bovine serum albumin and 10 mM HEPES. After stimulation, the supernatant was taken for PGE2 or NO quantification and for detection of secreted IIA-sPLA2. The cell monolayers were homogenized in lysis buffer and processed exactly as previously described (Huwiler et al., 2006). Cell lysates were taken for protein determination. Lysates containing equal amounts of protein, were separated by sodium dodecylsulfate-polyacrylamide gel electrophoresis (SDS-PAGE), transferred to nitrocellulose membranes and subjected for Western blot analysis using antibodies as indicated in the figure legends. Bands were detected by enhanced chemiluminescence method as recommended by the manufacturer.
# EA.hy 926 cells = experiment: serum-stimulated migration of endothelial cells, adapted Boyden chamber assay; format: cell-based, human; conditions: 10% serum, 6 h, at 3 μM and 10 μM
# Method: Serum-starved EA. by 926 cells in 8 μM-polycarbonate inserts were treated for 6 h with 10% serum in the absence or presence of the indicated concentrations of ST-968 or ST-1071. Migrated cells were stained with DAPI and counted in a fluorescence microscop.
# EA.hy 926 cells were cultured for 24 h under serum-free conditions. Chemotaxis was measured in Cell Culture Inserts (polycarbonate-coated membranes, […] pore size). The lower compartment was filled with serum-free DMEM and 1.7×10^5 cells were seeded per insert in the absence or presence of the indicated stimuli and inhibitors. After the indicated time periods, non-migrated cells were mechanically removed from the membrane and cells that had migrated into the membrane were fixed in 4% paraformaldehyde in PBS and stained with lug/ml of 4′,6-diamidino-2-phenylindole (DAPI). DAPI-stained cells were counted using a fluorescence microscope. Each data point is the average number of cells in five random fields and is the mean of four individual wells.
# [2] = test system: colon cancer cell line HCT-116; experiment: colony formation assay; format: cell-based, human; conditions: HCT-116, 10 days of treatment
# Method: Cells were seeded at a density of 700 cells per 60 mm-diameter dish in growth medium. After 24 h, cells were treated with either vehicle (Co) or the indicated concentrations (in μM) of FTY720, myriocin (myrio), ST-968, and ST-1071, and further cultured for 10 days at 37° C. Thereafter, colonies were stained and quantified as described in the Methods Section. […] Rat renal mesangial cells were isolated, characterized, and cultured as previously described (Pfeilschifter et al., 1984). For the experiments performed in this study, cells between passages 8-30 were used. The human endothelial cell line EA.hy 926 was cultured in RPMI medium containing 10% (v/v) fetal bovine serum, 10 mM Hepes, pH 7.4, 100 units/ml penicillin, and 100 μg/ml streptomycin. HCT-116 colon carcinoma cells were cultured in McCoy medium including 10% (v/v) fetal bovine serum, 100 units/ml penicillin, and 100 μg/ml streptomycin. Prior to stimulation, all cells were rendered quiescent for 24 h in DMEM including 0.1 mg/ml of fatty acid-free bovine serum albumin (BSA). Cells were subcultured in 60 mm-diameter dishes at a density of 700 cells per dish. After 24 h, cells were treated with the indicated concentrations of the different compounds in growth medium and incubated for further 10 days to allow colony formation. Cells were then washed with PBS, air dried, and stained for 30 min with 2% (w/v) crystal violet, washed with water and air dried again. The number of colonies was quantified using a ColCount™ (Mammalian Cell Colony Counter, Oxford Optronix, Oxford, U.K.). Only colonies containing more than 50 cells were evaluated.
# [3] = test system: breast cancer cell lines (MCF-7, MDA-MB-231 and Sk-Br-3) and colon cancer cell lines (HCT-116 and SW620); conditions: cited from earlier work; for growth inhibition: Nagaoka et al. 2008, in the concentration tested
# MCF-7 cells = conditions: Nagaoka et al. 2008; cited from earlier work
# [4] = test system: p42/44-MAPK phosphorylation in EA.hy 926 cells; experiment: MAPK/ERK phosphorylation in the endothelial cell line EA.hy 926, Western blot; format: cell-based, human; conditions: 1 μM
# Method: Confluent EA.hy 926 cells were treated either for 10 min (left side) or for 4 h (right side) with either vehicle (Co), S1P (1 μM), or ST-968 (1 μM). Thereafter, cell lysates containing 30 μg of protein were separated by SDS-PAGE, transferred to nitrocellulose and subjected to Western blot analysis using antibodies against phospho-ERK½ (dilution of 1:1000; A, upper panel), and total p42/ERK2 and p44/ERK1(dilutions each 1:6000; B, lower panel). Blots were stained by the ECL method according to the manufacturer's recommendation. Bands corresponding to the phospho-ERKs were densitometrically evaluated and results are depicted as % of control and are means ±S.D. ([…]).
# as §1
# as §2, with “Lysates containing equal amounts of protein, were separated by sodium dodecylsulfate-polyacrylamide gel electrophoresis (SDS-PAGE), transferred to nitrocellulose membranes and subjected for Western blot analysis using antibodies as indicated in the figure legends.” left out
# [5] = test system: secretory phospholipase A2 (sPLA2) expression; experiment: cytokine-triggered secretory phospholipase A2 expression in renal mesangial cells, Western blot; format: cell-based, rat; conditions: IL-1β 1 nM plus forskolin 10 μM, 24 h, increasing doses of ST-968
# Method: Cells were treated for 24 h with either vehicle (−, 0) or with interleukin 1 β (1 nM) plus forskolin (10 μM) (IL-1/Fk, +) in the absence (0) or presence of the indicated concentrations of ST-968. Thereafter, supernatants were collected and equal volumes were taken for protein precipitation using trichloroacetic acid. Equal aliquots were separated by SDS-PAGE, transferred to nitrocellulose and subjected to Western blot analysis using a monoclonal antibody against rat sPLA2 at a dilution of 1:60. Blots were stained by the ECL method according to the manufacturer's recommendation. Data are representative of two independent experiments giving similar results.
# as §2, with “Lysates containing equal amounts of protein, were separated by sodium dodecylsulfate-polyacrylamide gel electrophoresis (SDS-PAGE), transferred to nitrocellulose membranes and subjected for Western blot analysis using antibodies as indicated in the figure legends.” left out, “manufacturer. […]” for “manufacturer.”
# [6] = test system: nitric oxide (NO) formation; experiment: cytokine-triggered nitric oxide release from renal mesangial cells, Griess reagent; format: cell-based, rat; conditions: IL-1β 1 nM plus forskolin 10 μM, 24 h
# Method: Cells were treated for 24 h with either vehicle (−) or with interleukin 1 β (1 nM) plus forskolin (10 μM) (IL-1/Fk, +) in the absence or presence of the indicated concentrations of ST-968 (in μM), or betamethasone (in nM). Thereafter, supernatants were collected and nitrite was quantified by using the Griess reagent.
# Quiescent mesangial cells in 24-well plates were stimulated as indicated, and the supernatants were taken for nitrite determination using Griess reagent as described (Green et al., 1982).
compound,measurement,setting,value
"CCCCCCCOc1ccc(CCC23COCN2COC3)cc1 [ST-1071, 7a-(4-(Heptyloxy)Phenethyl)Tetrahydro-1H-Oxazolo[3,4-c]Oxazole]",agonistic potential on S1P receptors,[1],have agonistic potential on one or several of the S1P receptors
same,agonistic potential on S1P receptors,[1]; listed as ST1071,exhibited agonistic potential for one or several of the S1P receptor subtypes
same,p42/44 phosphorylation (p42/44-MAPK activity),[1],stimulated p42/44 phosphorylation after 10 min in a concentration-dependent manner
same,potency on p42/44 phosphorylation compared with S1P,"[1]; renal mesangial cells, 10 min",less potent than S1P
same,serum-stimulated migration,EA.hy 926 cells,able to reduce serum-stimulated migration
same,colony formation,[2],strongly reduced colony formation
same,colony formation,[2]; listed as ST 1071,inhibited and/or reduced the colony formation
"CCCCCCCCc1ccc(CC[C@](N)(CO)COP(=O)(O)O)cc1 [FTY720-P, FTY720-1-phosphate]",growth inhibition,[3],did not inhibit the growth
same,growth of MCF-7 cells,MCF-7 cells,slightly induced the growth
"CCCCCCCCc1cccc(NC(=O)[C@H](N)COP(=O)(O)O)c1 [VPC23019, reference compound]",effect on ST-968-induced p42/44 activation,[1],completely abolished
pertussis toxin [reference compound],effect on ST-968-induced p42/44 activation,[1],only partially blocked
CCCCCCCCCCCCC/C=C/[C@@H](O)[C@@H](N)CO [sphingosine],growth inhibition,[3],significant growth inhibition
"CCCCCCc1cccc(NC(=O)[C@H](N)CCP(=O)(O)O)c1 [W146, (R)-3-amino-(3-hexylphenylamino)-4-oxobutylphosphonic acid, reference compound]",effect on ST-968-induced p42/44 activation,[1],had no effect
"CCCCCCC(=O)CCCCCC/C=C/C[C@@H](O)[C@H](O)[C@@](N)(CO)C(=O)O [myriocin, reference compound]",colony formation,[2],had no effect
"CCCCCCCCCCCCC/C=C/[C@@H](O)[C@@H](N)COP(=O)(O)O [S1P, sphingosine-1-phosphate]","p42/44 phosphorylation, S1P compared with ST-968",[4]; 10 min of stimulation,more potent to increase p42/44 phosphorylation than ST-968
same,growth inhibition,[3],did not inhibit the growth
same,growth of MCF-7 cells,MCF-7 cells,slightly induced the growth
CCCCCCCCCCCCC/C=C/[C@@H](O)[C@H](CO)N(C)C [dimethylsphingosine],effect of the combination on the inhibitory effect of FTY720,"[3]; combined with FTY720, Nagaoka et al. 2008",augmented the inhibitory effect of FTY720
"CCCCCCCCc1ccc(CCC23COCN2COC3)cc1 [ST-968, 7a-(4-Octylphenethyl)Tetrahydro-1H-Oxazolo[3,4-c]Oxazole]",agonistic potential on S1P receptors,[1],have agonistic potential on one or several of the S1P receptors
same,agonistic potential on S1P receptors,[1]; listed as ST 968,exhibited agonistic potential for one or several of the S1P receptor subtypes
same,p42/44 phosphorylation (p42/44-MAPK activity),[1],increased p42/44 phosphorylation
same,sPLA2 expression,[5],reduced
same,IL-1β/forskolin induced NO formation,[6],dose-dependently reduced
same,activation of the p42/44-MAPK cascade,[4],could activate the p42/44-MAPK cascade
same,"p42/44 phosphorylation, ST-968 compared with S1P",[4]; 4 h of stimulation,more potently increasing p42/44 phosphorylation than S1P
same,serum-stimulated migration,EA.hy 926 cells,able to reduce serum-stimulated migration
same,colony formation,[2],strongly reduced colony formation
same,colony formation,[2]; listed as ST 968,inhibited and/or reduced the colony formation
"CCCCCCCCc1ccc(CCC(N)(CO)CO)cc1.Cl [FTY720, 2-Amino-2[2-(4-octylphenyl)ethyl]propane-1,3-diol, reference compound]",colony formation,[2],completely abolished colony formation
same,growth inhibition,[3],significant growth inhibition
